Source: patent publication US4647586A, “Pharmaceutical oil-in-water type micro-emulsion” (priority 1984, dated 1987)

Experiments:
[1] = system: brewer's yeast-induced fever; assay: Effects on body temperature in pyretic rats (antipyretic activity); type: in vivo, SD-strain male rats; conditions: iv, 17 h, read-out: ED50 (dose reducing body temperature by at least 1.5° C. in 50% of the rats)
Method: (a) Experimental animals SD-strain male rats (120-185 g).
(§1) (b) Test drugs: The same as in A-1 [Test 2].
Male Sprague-Dawley rats, weighing 120-185 g, were injected subcutaneously in the nape of the neck with 2 ml of a 20% suspension of dried brewers yeast in physiological saline. Drugs and vehicles were administered intravenously 17 hours after treatment of yeast suspension. Rectal temperature was recorded with a thermistor type thermometer (Natsume Seisakusho, BMA-77 Type) just prior to drug administration and at 1/2, 1, 2 and 4 hours after drug administration.

[2] = system: Adjuvant-induced polyarthritis; assay: Adjuvant-induced polyarthritis in rats, adjuvant-injected paw [Test 2]; type: in vivo, SD-strain female rats
Method: (a) Experimental animals: SD-strain famale rats 140-180g).
as §1
Rats were anesthetized with ether inhalation, and 0.6 mg of Mycobacterium butyricum suspended in 0.1 ml of white paraffin oil was immediately injected intradermally into the planter surface of the left hind paw of each rat via a 27 gauge needle fitted to a 0.5 ml syringe (day 0). On the 14th day after the adjuvant injection, arthritis-established rats selected by development of secondary lesions were used. Volumes of both hind paws in arthritis-established rats were measured by a plethysmometer (UGO BASILE), and the rats were randomized on the basis of the edema volume in the adjuvant-injected paw. Once daily, beginning on the 14th day up to the 18th day, drugs and vehicles were administered intravenously. Measurements of both paw volumes were performed every day from the 15th day up to the 18th day, and on the 21st day and the 24th day. The inhibition percent were calculated in accordance with the calculation formula as in [Test 1] of A-1.

Compound: O=C([O-])Cc1ccc(-c2ccccc2)cc1.[Na+]
- ED50 [1]: 2.6 mg/kg
- Inhibition (%) ([2]; 1.25 mg/kg/day i.v. as 4-biphenylylacetic acid, day 15): -1.8%
- Inhibition (%) ([2]; 1.25 mg/kg/day i.v. as 4-biphenylylacetic acid, day 16): 1.2%
- Inhibition (%) ([2]; 1.25 mg/kg/day i.v. as 4-biphenylylacetic acid, day 17): 7.9%
- Inhibition (%) ([2]; 1.25 mg/kg/day i.v. as 4-biphenylylacetic acid, day 18): 3.9%
- Inhibition (%) ([2]; 1.25 mg/kg/day i.v. as 4-biphenylylacetic acid, day 21): -7.5%
- Inhibition (%) ([2]; 1.25 mg/kg/day i.v. as 4-biphenylylacetic acid, day 24): -14.1%
- Inhibition (%) ([2]; 2.5 mg/kg/day i.v. as 4-biphenylylacetic acid, day 15): -4.2%
- Inhibition (%) ([2]; 2.5 mg/kg/day i.v. as 4-biphenylylacetic acid, day 16): 1.5%
- Inhibition (%) ([2]; 2.5 mg/kg/day i.v. as 4-biphenylylacetic acid, day 17): 1.9%
- Inhibition (%) ([2]; 2.5 mg/kg/day i.v. as 4-biphenylylacetic acid, day 18): -3.9%
- Inhibition (%) ([2]; 2.5 mg/kg/day i.v. as 4-biphenylylacetic acid, day 21): -15.7%
- Inhibition (%) ([2]; 2.5 mg/kg/day i.v. as 4-biphenylylacetic acid, day 24): -29.7%
- Inhibition (%) ([2]; 5.0 mg/kg/day i.v. as 4-biphenylylacetic acid, day 15): 7.3%
- Inhibition (%) ([2]; 5.0 mg/kg/day i.v. as 4-biphenylylacetic acid, day 16): 12.9%
- Inhibition (%) ([2]; 5.0 mg/kg/day i.v. as 4-biphenylylacetic acid, day 17): 17.9%
- Inhibition (%) ([2]; 5.0 mg/kg/day i.v. as 4-biphenylylacetic acid, day 18): 15.6%
- Inhibition (%) ([2]; 5.0 mg/kg/day i.v. as 4-biphenylylacetic acid, day 21): 9.2%
- Inhibition (%) ([2]; 5.0 mg/kg/day i.v. as 4-biphenylylacetic acid, day 24): 2.8%
- Inhibition (%) ([2]; 10.0 mg/kg/day i.v. as 4-biphenylylacetic acid, day 15): 8.2%
- Inhibition (%) ([2]; 10.0 mg/kg/day i.v. as 4-biphenylylacetic acid, day 16): 9.5%
- Inhibition (%) ([2]; 10.0 mg/kg/day i.v. as 4-biphenylylacetic acid, day 17): 17.9%
- Inhibition (%) ([2]; 10.0 mg/kg/day i.v. as 4-biphenylylacetic acid, day 18): 16.6%
- Inhibition (%) ([2]; 10.0 mg/kg/day i.v. as 4-biphenylylacetic acid, day 21): 1.3%
- Inhibition (%) ([2]; 10.0 mg/kg/day i.v. as 4-biphenylylacetic acid, day 24): -0.7%
- ED20 ([2]; Rattus norvegicus, iv, read-out: ED20 (dose required to cause a 20% inhibition of adjuvant-injected paw volume)): 14.3 mg/kg
